Test results as given in article PMC12432378 (Cell Reports Medicine, 2025).
pIC50: −log10 of the molar value. Positions of bridges follow the written chain, without caps; N, C: chain ends. Non-standard residues stand in square brackets, D forms with d. Residues, ends and D or L forms follow the SMILES beside them. S5 = C=CCCC[C@](C)(N)C(=O)O

Test system: SARS-CoV-2 variants, including Delta, BA.2.75, XBB.1.16, and KP.2
Details: BA.2.75, XBB.1.16, and KP.2, 48 h

| Structure (SMILES) | pIC50 |
| --- | --- |
| CC[C@H](C)[C@H](NC(=O)[C@H](C)NC(=O)[C@H](CCSC)NC(=O)[C@H](CCC(=O)O)NC(=O)[C@H](CC(=O)O)NC(=O)[C@H](CO)NC(=O)[C@H](CC(C)C)NC(=O)[C@H](CC(=O)O)NC(=O)[C@H](CC(C)C)NC(=O)[C@H](CC(C)C)NC(=O)[C@@H](NC(=O)[C@@H](NC(=O)[C@H](CC(N)=O)NC(=O)[C@@H](NC(=O)[C@H](CCCCN)NC(=O)[C@H](CO)NC(=O)[C@@H](NC(=O)[C@H](CCC(=O)O)NC(C)=O)[C@@H](C)CC)[C@@H](C)CC)C(C)C)[C@@H](C)O)C(=O)N[C@@H](CC(C)C)C(=O)N[C@@H](CC(C)C)C(=O)N[C@@H](CCC(=O)O)C(=O)N[C@@H](C)C(=O)N[C@H](C(=O)N[C@@H](CCCCN)C(=O)N[C@@H](CCC(N)=O)C(=O)N[C@@H](CC(C)C)C(=O)N[C@@H](CC(N)=O)C(=O)N[C@@H](CC(=O)O)C(=O)N[C@@H](CO)C(=O)N[C@@H](Cc1ccc(O)cc1)C(=O)N[C@H](C(=O)N[C@@H](CC(=O)O)C(=O)N[C@@H](CC(C)C)C(=O)N[C@@H](CCCCN)C(=O)N[C@@H](CCC(=O)O)C(=O)N[C@@H](CC(C)C)C(N)=O)[C@@H](C)CC)[C@@H](C)CC [MjHKU4r-HR2P9] | 6.34 to 6.42 |
| CC[C@H](C)[C@H](NC(=O)[C@H](C)NC(=O)[C@H](CCSC)NC(=O)[C@H](CCC(=O)O)NC(=O)[C@H](CC(=O)O)NC(=O)[C@H](CO)NC(=O)[C@H](CC(C)C)NC(=O)[C@H](CC(=O)O)NC(=O)[C@H](CC(C)C)NC(=O)[C@H](CC(C)C)NC(=O)[C@@H](NC(=O)[C@@H](NC(=O)[C@H](CC(N)=O)NC(=O)[C@@H](NC(=O)[C@H](CCCCN)NC(=O)[C@H](CO)NC(=O)[C@@H](NC(=O)[C@H](CCC(=O)O)NC(C)=O)[C@@H](C)CC)[C@@H](C)CC)C(C)C)[C@@H](C)O)C(=O)N[C@@H](CC(C)C)C(=O)N[C@@H](CC(C)C)C(=O)N[C@@]1(C)CCCC=CCCC[C@@](C)(C(=O)N[C@@H](CC(C)C)C(=O)N[C@@H](CC(N)=O)C(=O)N[C@@H](CC(=O)O)C(=O)N[C@@H](CO)C(=O)N[C@@H](Cc2ccc(O)cc2)C(=O)N[C@H](C(=O)N[C@@H](CC(=O)O)C(=O)N[C@@H](CC(C)C)C(=O)N[C@@H](CCCCN)C(=O)N[C@@H](CCC(=O)O)C(=O)N[C@@H](CC(C)C)C(N)=O)[C@@H](C)CC)NC(=O)[C@H](CCCCN)NC(=O)[C@H]([C@@H](C)CC)NC(=O)[C@H](C)NC1=O [MjHKU4r-HR2P10] (Ac-EISKINVTLLDLSDEMAILL[S5]AIK[S5]LNDSYIDLKEL-NH2; staple 21-25) | 6.72 to 7.07 |
